Test results: PubChem BioAssay AID1963835 (Molecular Pharmacology Branch, DTP, NCI, 2024)
pIC50: −log10 of the molar value.

Tested on: 699152-130-R-J1-PDC complex spheroid viability
Experiment: Anticancer human tumor 699152-130-R-J1-PDC patient-derived pancreatic carcinoma cell line growth inhibition [POLQ]
Conditions: for pIC50: curve of first compound; for viability, T/C: stronger effect = lower value; active = viability on the fitted dose curve at most 10% of control; inactive = the rest
Summary of the method: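 Growth inhibition in 3D: complex spheroids (tumor PDC, HUVEC, MSC) treated with POLQ inhibitor combinations; where Cmax unknown, highest tested concentration 10 microM, except SN-38 at 1 microM.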

[1] = second compound 0.0316 µM, first compound 0.0316 µM
[2] = second compound 0.0316 µM, first compound 0.1 µM
[3] = second compound 0.0316 µM, first compound 0.316 µM
[4] = second compound 0.0316 µM, first compound 1 µM
[5] = second compound 0.1 µM, first compound 0.0316 µM
[6] = second compound 0.1 µM, first compound 0.1 µM
[7] = second compound 0.1 µM, first compound 0.316 µM
[8] = second compound 0.1 µM, first compound 1 µM
[9] = second compound 0.316 µM, first compound 0.0316 µM
[10] = second compound 0.316 µM, first compound 0.1 µM
[11] = second compound 0.316 µM, first compound 0.316 µM
[12] = second compound 0.316 µM, first compound 1 µM
[13] = second compound 1 µM, first compound 0.0316 µM
[14] = second compound 1 µM, first compound 0.1 µM
[15] = second compound 1 µM, first compound 0.316 µM
[16] = second compound 1 µM, first compound 1 µM
[17] = second compound 3.16 µM, first compound 0.0316 µM
[18] = second compound 3.16 µM, first compound 0.1 µM
[19] = second compound 3.16 µM, first compound 0.316 µM
[20] = second compound 3.16 µM, first compound 1 µM
[21] = second compound 10 µM, first compound 0.0316 µM
[22] = second compound 10 µM, first compound 0.1 µM
[23] = second compound 10 µM, first compound 0.316 µM
[24] = second compound 10 µM, first compound 1 µM
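Also: spheroids exposed to agents for 7 days before viability reading.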
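For viability, T/C in this document: percent of DMSO vehicle control viability so 100% = vehicle and 0% = no viable signal.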

COc1cccc(OCCCN)c1-c1cc(Nc2cnc(C#N)cn2)n[nH]1 + Nc1ccc(C#CCN(C(=O)Cc2ncc(C(F)(F)F)cc2C(F)(F)F)c2ccc(F)cc2)nn1
inactive: viability, T/C (second compound 0.0316 µM, first compound 0.00316 µM) 90.3% | viability, T/C (second compound 0.0316 µM, first compound 0.01 µM) 101% | viability, T/C [1] 72.8% | viability, T/C [2] 64.2% | viability, T/C [3] 62.4% | viability, T/C [4] 65% | viability, T/C (second compound 0.1 µM, first compound 0.00316 µM) 92.2% | viability, T/C (second compound 0.1 µM, first compound 0.01 µM) 101% | viability, T/C [5] 73.4% | viability, T/C [6] 59.3% | viability, T/C [7] 65.8% | viability, T/C [8] 56.1% | viability, T/C (second compound 0.316 µM, first compound 0.00316 µM) 99.3% | viability, T/C (second compound 0.316 µM, first compound 0.01 µM) 93.8% | viability, T/C [9] 74.8% | viability, T/C [10] 68.6% | viability, T/C [11] 60.8% | viability, T/C [12] 59.9% | viability, T/C (second compound 1 µM, first compound 0.00316 µM) 111% | viability, T/C (second compound 1 µM, first compound 0.01 µM) 100% | viability, T/C [13] 79.6% | viability, T/C [14] 69% | viability, T/C [15] 62.2% | viability, T/C [16] 55.8% | viability, T/C (second compound 3.16 µM, first compound 0.00316 µM) 109% | viability, T/C (second compound 3.16 µM, first compound 0.01 µM) 94.4% | viability, T/C [17] 70.1% | viability, T/C [18] 60.6% | viability, T/C [19] 66.1% | viability, T/C [20] 65% | viability, T/C (second compound 10 µM, first compound 0.00316 µM) 121% | viability, T/C (second compound 10 µM, first compound 0.01 µM) 92.3% | viability, T/C [21] 71.8% | viability, T/C [22] 64.7% | viability, T/C [23] 66.3% | viability, T/C [24] 60.5%
< 6.00: pIC50 (second compound 0.0316 µM) | pIC50 (second compound 0.1 µM) | pIC50 (second compound 0.316 µM) | pIC50 (second compound 1 µM) | pIC50 (second compound 3.16 µM) | pIC50 (second compound 10 µM)

COc1ccc([C@@H](O)c2cc(-c3ncnc4cc(N5CCOCC5)ccc34)c(F)cc2Cl)nn1 + Cc1cccc(N(C)C(=O)C2C(O)CCN2c2nc(C)cc(C(F)(F)F)c2C#N)c1
5.38: pIC50 (second compound 0.316 µM)
5.39: pIC50 (second compound 0.0316 µM)
5.35: pIC50 (second compound 10 µM)
5.47: pIC50 (second compound 3.16 µM)
5.45: pIC50 (second compound 1 µM)
5.44: pIC50 (second compound 0.1 µM)
inactive: viability, T/C [1] 96.5% | viability, T/C [2] 94.2% | viability, T/C [3] 98.3% | viability, T/C [4] 78.9% | viability, T/C (second compound 0.0316 µM, first compound 3.16 µM) 58.8% | viability, T/C (second compound 0.0316 µM, first compound 10 µM) 22.6% | viability, T/C [5] 101% | viability, T/C [6] 106% | viability, T/C [7] 87.7% | viability, T/C [8] 85.3% | viability, T/C (second compound 0.1 µM, first compound 3.16 µM) 52.5% | viability, T/C (second compound 0.1 µM, first compound 10 µM) 22.9% | viability, T/C [9] 106% | viability, T/C [10] 88.9% | viability, T/C [11] 90.4% | viability, T/C [12] 84% | viability, T/C (second compound 0.316 µM, first compound 3.16 µM) 56.9% | viability, T/C (second compound 0.316 µM, first compound 10 µM) 22.6% | viability, T/C [13] 109% | viability, T/C [14] 95.8% | viability, T/C [15] 90.1% | viability, T/C [16] 78.9% | viability, T/C (second compound 1 µM, first compound 3.16 µM) 51.4% | viability, T/C (second compound 1 µM, first compound 10 µM) 21.2% | viability, T/C [17] 111% | viability, T/C [18] 94.7% | viability, T/C [19] 83.6% | viability, T/C [20] 75.2% | viability, T/C (second compound 3.16 µM, first compound 3.16 µM) 51% | viability, T/C (second compound 3.16 µM, first compound 10 µM) 27.4% | viability, T/C [21] 101% | viability, T/C [22] 100% | viability, T/C [23] 88.8% | viability, T/C [24] 74.1% | viability, T/C (second compound 10 µM, first compound 3.16 µM) 60.2% | viability, T/C (second compound 10 µM, first compound 10 µM) 30.9%
